We go through 16 compounds from patent US20260042746A1, “2(1H)-PYRIDINIMINE DERATIVE” (SUMITOMO PHARMA CO., LTD., priority 2022, published 2026).

Format in all cases: cell-based
The subject of experiment [1] is α-synuclein aggregate. Briefly: Test 2: suppressing the accumulation of α-synuclein aggregate in neurospheroid from PLA2G6 mutant human iPS cells. The note with it: compound added day 4, measured day 9, DMSO = 100%; for activity at 0.1 µM: 100 nM, read-out: Amount of aggregate (%) 100 nM; for activity at 1 µM: 1000 nM, read-out: Amount of aggregate (%) 1000 nM. As to the method: Test 2: Evaluation of Suppressing the Accumulation of α-Synuclein Aggregate with Neurospheroid Prepared from Human iPS Cells with a Mutation in PLA2G6 Gene
(§1) (1) Induction of Differentiation from Human iPS Cell to Neural Cell
Neural stem cells were induced from PLA2G6 gene mutant iPS cells with PSC Neuronal Induction Medium (Thermo Fisher Scientific Inc., cat #A1647801). Neurospheroid was prepared from the induced neural stem cells by three-dimensional culture system, and preserved with BrainPhys Neuronal Medium (STEMCELL Technologies, cat #ST-05793) comprising NeuroCult SM1 Neuronal Supplement, N2 Supplement-A, 20 ng/mL BDNF, 20 ng/mL GDNF, 1 mM dibutyryl cAMP, and 200 nM ascorbic acid. Half of the culture medium was replaced on day 2 and day 4 after the induction of differentiation.
The test compound was diluted with the culture medium so as to be twice the final concentration, and an equal volume of the twice-concentrated solution was added to each well when half of the culture medium was replaced on day 4 after induction of differentiation.
(§2) (2) Evaluation of the Amount of α-Synuclein Aggregate
From the neurospheroid 9 days after the induction of differentiation, proteins were extracted with a TBS solution containing 1% TritionX-100, and the extracted proteins were subjected to a protein analysis with Simple Western system (Protein Simple, Inc., cat #SM-W008) using an α-synuclein antibody (Thermo Fisher Scientific Inc., cat #AHB0261) to measure the amount of the α-synuclein aggregate.
Assuming that the amount of the aggregate in the neurospheroid added with a DMSO solution is 100%, the amount of the aggregate in the neurospheroid added with each test compound was evaluated.

Experiment [2] deals with α-synuclein aggregate. The experiment can be described thus: Test 3: reducing the accumulation of α-synuclein aggregate in neurospheroid from PLA2G6 mutant human iPS cells. The note with it: compound added day 10, measured day 15, DMSO = 100%. As to the method: Test 3: Evaluation of Reducing the Accumulation of α-Synuclein Aggregate with Neurospheroid Prepared from Human iPS Cells with a Mutation in PLA2G6 Gene
as §1
(§3) Neural stem cells were induced from PLA2G6 gene mutant iPS cells with PSC Neuronal Induction Medium (Thermo Fisher Scientific Inc., cat #A1647801). Neurospheroid was prepared from the induced neural stem cells by three-dimensional culture system, and preserved with BrainPhys Neuronal Medium (STEMCELL Technologies, cat #ST-05793) comprising NeuroCult SM1 Neuronal Supplement, N2 Supplement-A, 20 ng/mL BDNF, 20 ng/mL GDNF, 1 mM dibutyryl cAMP, and 200 nM ascorbic acid. Half of the culture medium was replaced every 3 or 4 days after the induction of differentiation.
The test compound was diluted with the culture medium so as to be twice the final concentration, and an equal volume of the twice-concentrated solution was added to each well when half of the culture medium was replaced on day 10 after induction of differentiation.
as §2
From the neurospheroid 15 days after the induction of differentiation, proteins were extracted with a TBS solution containing 1% TritionX-100, and the extracted proteins were subjected to a protein analysis with Simple Western system (Protein Simple, Inc., cat #SM-W008) using an α-synuclein antibody (Thermo Fisher Scientific Inc., cat #AHB0261) to measure the amount of the α-synuclein aggregate.
(§4) The amount of the aggregate in the neurospheroid added with each test compound was measured. Assuming that the amount of the aggregate in the neurospheroid added with a DMSO solution is 100%, the amount of the aggregate in the test samples was evaluated.

Experiment [3] deals with α-synuclein aggregate. The experiment can be described thus: Test 5: suppressing the accumulation of α-synuclein aggregate in dopamine neurospheroid from PLA2G6 mutant human iPS cells. The settings on record: compound added day 21, measured day 26, DMSO = 100%. As to the method:
Test 5: Evaluation of Suppressing the Accumulation of α-Synuclein Aggregate with Dopamine Neurospheroid Prepared From Human iPS Cells with a Mutation in PLA2G6 Gene
as §1
as §3, with “Dopaminergic progenitor” for “Neural stem”, “dopaminergic neuron differentiation kit” for “PSC Neuronal Induction Medium”, “#A3147701). Dopamine neurospheroid” for “#A1647801). Neurospheroid”, “dopaminergic progenitor” for “neural stem”
The test compound was diluted with the culture medium so as to be twice the final concentration, and an equal volume of the twice-concentrated solution was added to each well when half of the culture medium was replaced on day 21 after induction of differentiation.
as §2
From the dopamine neurospheroid 26 days after the induction of differentiation, proteins were extracted with a TBS solution containing 1% TritionX-100, and the extracted proteins were subjected to a protein analysis with Simple Western system (Protein Simple, Inc., cat #SM-W008) using an α-synuclein antibody (Thermo Fisher Scientific Inc., cat #AHB0261) to measure the amount of the α-synuclein aggregate.
as §4

Experiment [4] relates to α-synuclein aggregate. The experiment can be described thus: Test 11: reducing the accumulation of α-synuclein aggregate in dopamine neurospheroid from GBA1 mutant human iPS cells. The note with it: compound added day 40, measured day 44, DMSO = 100%. The procedure:
Test 11: Evaluation of Reducing the Accumulation of α-Synuclein Aggregate with Dopamine Neurospheroid Prepared From Human iPS Cells with a Mutation in GBA1 Gene
as §1
Dopaminergic progenitor cells were induced from GBA1 gene mutant iPS cells with dopaminergic neuron differentiation kit (Thermo Fisher Scientific Inc., cat #A3147701). Dopamine neurospheroid was prepared from the induced dopaminergic progenitor cells by three-dimensional culture system, and preserved with BrainPhys Neuronal Medium (STEMCELL Technologies, cat #ST-05793) comprising NeuroCult SM1 Neuronal Supplement, N2 Supplement-A, 20 ng/mL BDNF, 20 ng/mL GDNF, 1 mM dibutyryl cAMP, and 200 nM ascorbic acid. Half of the culture medium was replaced every 3 or 4 days.
The test compound was diluted with the culture medium so as to be twice the final concentration, and an equal volume of the twice-concentrated solution was added to each well when half of the culture medium was replaced on day 40 after induction of differentiation.
as §2
From the dopamine neurospheroid 44 days after the induction of differentiation, proteins were extracted with a TBS solution containing 1% TritionX-100, and the extracted proteins were subjected to a protein analysis with Simple Western system (Protein Simple, Inc., cat #SM-W008) using an α-synuclein antibody (Thermo Fisher Scientific Inc., cat #AHB0261) to measure the amount of the α-synuclein aggregate.
as §4

For `CCC1(C(=O)/N=c2\ccccn2C)COC1` [Example 1, 3-Ethyl-N-[(2E)-1-methylpyridin-2(1H)-ylidene]oxetane-3-carboxamide], the activity at 0.1 µM with α-synuclein aggregate [1] worked out at 20%. For the same compound, the activity at 1 µM in the experiment on α-synuclein aggregate [1] was 21%. In addition, the “Amount of aggregate (%) 100 nM” value with α-synuclein aggregate [2] is on record as 23%; in the experiment with α-synuclein aggregate [3], 9%; in the experiment on α-synuclein aggregate [4], 12%. Further, the “Amount of aggregate (%) 1000 nM” value with α-synuclein aggregate [2] is recorded as 18%; in the experiment on α-synuclein aggregate [3], 13%; with α-synuclein aggregate [4] it was 19%.
Take `Cn1cccc/c1=N\C(=O)C1(C)COC1` [Example 2, 3-methyl-N-[(2E)-1-methylpyridin-2(1H)-ylidene]oxetane-3-carboxamide]: in the experiment on α-synuclein aggregate [1], the activity at 0.1 µM came to 31% and the activity at 1 µM stood at 38%. Besides, in the experiment with α-synuclein aggregate [2], the “Amount of aggregate (%) 100 nM” value stood at 36% and the “Amount of aggregate (%) 1000 nM” value is recorded as 35%. In addition, in the experiment on α-synuclein aggregate [3], the “Amount of aggregate (%) 100 nM” value is 24% and the “Amount of aggregate (%) 1000 nM” value is 3%. Besides, in the experiment with α-synuclein aggregate [4], the “Amount of aggregate (%) 100 nM” value is reported as 42% and the “Amount of aggregate (%) 1000 nM” value came out at 37%.
In the case of `CCn1cccc/c1=N\C(=O)C1(C)COC1` [Example 3, N-[(2E)-1-ethylpyridin-2(1H)-ylidene]-3-methyloxetane-3-carboxamide], in the experiment on α-synuclein aggregate [1], the activity at 0.1 µM amounted to 35% and the activity at 1 µM was 74%. Further, in the experiment with α-synuclein aggregate [2], the “Amount of aggregate (%) 100 nM” value is listed as 19% and the “Amount of aggregate (%) 1000 nM” value is recorded as 70%. Besides, in the experiment on α-synuclein aggregate [3], the “Amount of aggregate (%) 100 nM” value was 28% and the “Amount of aggregate (%) 1000 nM” value worked out at 78%. Besides, in the experiment with α-synuclein aggregate [4], the “Amount of aggregate (%) 100 nM” value was found to be 44% and the “Amount of aggregate (%) 1000 nM” value was determined as 39%.
Turning to `CCC1(C(=O)/N=c2\cc(OC)ccn2C)COC1` [Example 9, 3-ethyl-N-[(2E)-4-methoxy-1-methylpyridin-2(1H)-ylidene]oxetane-3-carboxamide], in the experiment on α-synuclein aggregate [1], the activity at 0.1 µM came to 4% and the activity at 1 µM was found to be 3%. Moreover, in the experiment on α-synuclein aggregate [2], the “Amount of aggregate (%) 100 nM” value came out at 52% and the “Amount of aggregate (%) 1000 nM” value is listed as 37%. For the same compound, in the experiment with α-synuclein aggregate [3], the “Amount of aggregate (%) 100 nM” value is 5% and the “Amount of aggregate (%) 1000 nM” value is on record as 28%.
For `CCC1(C(=O)/N=c2\ccc(F)cn2C)COC1` [Example 31, 3-ethyl-N-[(2E)-5-fluoro-1-methylpyridin-2(1H)-ylidene]oxetane-3-carboxamide], in the experiment with α-synuclein aggregate [1], the activity at 0.1 µM is 25% and the activity at 1 µM is 53%. Also, in the experiment with α-synuclein aggregate [2], the “Amount of aggregate (%) 100 nM” value was 23% and the “Amount of aggregate (%) 1000 nM” value is 19%. Further, in the experiment on α-synuclein aggregate [3], the “Amount of aggregate (%) 100 nM” value is given as 13% and the “Amount of aggregate (%) 1000 nM” value stood at 12%.
On to `COc1c/c(=N\C(=O)C2(C)CN(C)C2)n(C)cc1Cl` [Example 60, N-[(2E)-5-chloro-4-methoxy-1-methylpyridin-2(1H)-ylidene]-1,3-dimethylazetidine-3-carboxamide], for which, in the experiment on α-synuclein aggregate [1], the activity at 0.1 µM was determined as 44% and the activity at 1 µM was found to be 15%. Also, in the experiment with α-synuclein aggregate [2], the “Amount of aggregate (%) 100 nM” value was 9% and the “Amount of aggregate (%) 1000 nM” value is recorded as 9%. In addition, in the experiment on α-synuclein aggregate [3], the “Amount of aggregate (%) 100 nM” value is 21% and the “Amount of aggregate (%) 1000 nM” value came out at 15%.
In the case of `Cn1cccc/c1=N\C(=O)C1CCNC1` (centres unmarked) [Example 67], in the experiment with α-synuclein aggregate [1], the activity at 0.1 µM amounted to 62% and the activity at 1 µM turned out to be 72%.
In the case of `Cn1cccc/c1=N\C(=O)C1CCNCC1` [Example 68], in the experiment with α-synuclein aggregate [1], the activity at 0.1 µM turned out to be 80% and the activity at 1 µM was found to be 31%.
Regarding `CN1CC(C(=O)/N=c2\ccccn2C)C1` [Example 69], in the experiment on α-synuclein aggregate [1], the activity at 0.1 µM was determined as 89% and the activity at 1 µM is 41%.
Take `CN1CCC(C(=O)/N=c2\ccccn2C)C1` (centres unmarked) [Example 70]: in the experiment on α-synuclein aggregate [1], the activity at 0.1 µM was determined as 77% and the activity at 1 µM is 31%.
For the compound `CC(C)N1CC(C)(C(=O)/N=c2\ccccn2C)C1` [Example 71, 3-Methyl-N-[(2E)-1-methylpyridin-2(1H)-ylidene]-1-(propan-2-yl)azetidine-3-carboxamide], in the experiment with α-synuclein aggregate [1], the activity at 0.1 µM was 64% and the activity at 1 µM stood at 73%.
In the case of `Cn1cccc/c1=N\C(=O)C1(C)CN(C2CC2)C1` [Example 72, 1-Cyclopropyl-3-methyl-N-[(2E)-1-methylpyridin-2(1H)-ylidene]azetidine-3-carboxamide], in the experiment on α-synuclein aggregate [1], the activity at 0.1 µM was determined as 64% and the activity at 1 µM came to 75%.
In the same order, the values of `Cn1cccc/c1=N\C(=O)C1(C)CN(CC(F)(F)F)C1` [Example 73, 3-Methyl-N-[(2E)-1-methylpyridin-2(1H)-ylidene]-1-(2,2,2-trifluoroethyl)azetidine-3-carboxamide] are 79% and 76%.
Consider `Cn1cccc/c1=N\C(=O)N1CCOCC1(C)C` [Example 74, 3,3-Dimethyl-N-[(2E)-1-methylpyridin-2(1H)-ylidene]morpholine-4-carboxamide], for which, in the experiment with α-synuclein aggregate [1], the activity at 0.1 µM came out at 30% and the activity at 1 µM was 64%.
In the case of `Cn1cccc/c1=N\C(=O)N1CCOC(C)(C)C1` [Example 75, 2,2-Dimethyl-N-[(2E)-1-methylpyridin-2(1H)-ylidene]morpholine-4-carboxamide], in the experiment on α-synuclein aggregate [1], the activity at 0.1 µM amounted to 49% and the activity at 1 µM was determined as 63%.
Take `Cn1cccc/c1=N\C(=O)N1C[C@H]2CC[C@@H](C1)O2` [Example 76]: in the experiment with α-synuclein aggregate [1], the activity at 0.1 µM amounted to 44% and the activity at 1 µM is 67%.
